Several values for one entry are separate records, joined by “and”; a condition that tells them apart may be missing. Identical values can stand only once.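 How tested: cells in 96-well plates exposed to compound for 48 hours at five concentrations. At the GI50, growth is halved. Definition used: TGI = concentration required for complete inhibition of growth.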
What was measured:
Assay in all cases: growth of human tumour cells (NCI), 48 h
ACHN renal = tested on: ACHN renal
CCRF-CEM leukemia = tested on: CCRF-CEM leukemia
EKVX NSCLC = tested on: EKVX NSCLC
HCT-116 colon = tested on: HCT-116 colon
HOP-62 NSCLC = tested on: HOP-62 NSCLC
MDA-MB-435 = tested on: MDA-MB-435
MOLT-4 leukemia = tested on: MOLT-4 leukemia
OVCAR-5 ovarian = tested on: OVCAR-5 ovarian
PC-3 prostate = tested on: PC-3 prostate
T-47D breast = tested on: T-47D breast

Compound | GI50 (ACHN renal) | TGI (ACHN renal) | GI50 (CCRF-CEM leukemia) | TGI (CCRF-CEM leukemia) | GI50 (EKVX NSCLC) | TGI (EKVX NSCLC) | GI50 (HCT-116 colon) | TGI (HCT-116 colon) | GI50 (HOP-62 NSCLC) | TGI (HOP-62 NSCLC) | GI50 (MDA-MB-435) | TGI (MDA-MB-435) | GI50 (MOLT-4 leukemia) | TGI (MOLT-4 leukemia) | GI50 (OVCAR-5 ovarian) | TGI (OVCAR-5 ovarian) | GI50 (PC-3 prostate) | TGI (PC-3 prostate) | GI50 (T-47D breast) | TGI (T-47D breast)
COc1ccc(/C=C(/c2ccccc2)[N+](=O)[O-])cc1 | 1.55 µM | 2.9 µM | 0.415 µM | 3.32 µM | 1.73 µM | 3.52 µM | 1.03 µM | 2.29 µM | 1.82 µM | 3.79 µM | 1.3 µM | 2.69 µM | 2.18 µM | 6.28 µM | 1.62 µM | 3.26 µM | 1.46 µM | 3.21 µM | 1.2 µM | 4.5 µM
COc1ccc2c(Oc3ccc(NC(=O)c4c(C)n(CC(C)(C)O)n(-c5ccccc5)c4=O)nc3)ccnc2c1 | 5.02 µM | > 100 µM | 18.2 µM | > 100 µM | 23.3 µM | > 80.3 µM | 8.55 µM | > 64.3 µM | 27.8 µM | > 100 µM | 6.57 µM | > 66.5 µM | 9.07 µM | > 100 µM | 37.8 µM | > 89.6 µM | 19.5 µM | > 95.6 µM | 25.4 µM | > 100 µM
COC(=O)CCC1=C(CC(=O)OC)C(C)=N/C1=C\c1[nH]c(-c2ccc[nH]2)cc1OC | 4.26 µM | 15.6 µM | 1.68 µM | 29.8 µM | 5.61 µM | 25.3 µM | 1.36 µM | 11.5 µM | 8.56 µM | 24.2 µM | 5.81 µM | 23.3 µM | 2.31 µM | 20.1 µM | 3.9 µM | 18.8 µM | 5.32 µM | 22.6 µM | 3.55 µM | 16.3 µM
CCCCCCCCCCN1CCC(N2CCCCC2)CC1 | 4.31 µM | 13.7 µM | 2.08 µM | 9.48 µM | 4.37 µM | 18.3 µM | 1.27 µM |  | 2.38 µM | 7.64 µM | 1.47 µM | 3.55 µM | 2.09 µM | 6.65 µM | 3.74 µM | 14.4 µM | 2 µM | 13 µM | 1.53 µM | 3.58 µM
Cc1nn(C(=O)c2ccc(Cl)cc2)c2c1C(c1ccc(O)cc1)SC(N)=N2 (configuration not stated) |  | > 10 µM |  | > 10 µM |  | > 10 µM |  | > 10 µM |  | > 10 µM |  | > 10 µM |  | > 10 µM |  | > 10 µM |  | > 10 µM |  | > 10 µM
Cn1c(=O)c2c(ncn2CC(=O)Nc2ccc(-c3ccccc3)nn2)n(C)c1=O | > 100 µM | > 100 µM | > 100 µM | > 100 µM | > 100 µM | > 100 µM | > 100 µM | > 100 µM | > 100 µM | > 100 µM | > 100 µM | > 100 µM | > 100 µM | > 100 µM | > 100 µM | > 100 µM | > 100 µM | > 100 µM | 75.6 µM | > 100 µM
O=C(NO)c1ccc(CN(c2cnccn2)c2cnccn2)cc1 | 12.9 µM | 27.4 µM | 11.2 µM | > 100 µM | 15.9 µM | 36.7 µM | 6.04 µM | 28.9 µM | 15.4 µM | 34.8 µM | 12.2 µM | 27.7 µM | 17.7 µM | > 100 µM | 14.7 µM | 52.6 µM | 11.7 µM | 31.4 µM | 9.55 µM | 38.1 µM
O=C(OCc1ccc2c(Cl)cc(Cl)c(O)c2n1)N1CCN(C(=O)c2cc3cc(F)ccc3[nH]2)CC1 | 0.611 µM | > 100 µM | 0.876 µM | > 100 µM | > 74.9 µM | > 100 µM | 0.392 µM | > 100 µM | 1.31 µM | > 100 µM | 0.358 µM | 2.18 µM | 1.02 µM | > 100 µM | > 37.5 µM | > 100 µM | 1.59 µM | > 100 µM | > 100 µM | > 100 µM
COCOc1ccc(C2(O)Oc3cc(OCOC)ccc3C2C)c(O)c1 (configuration not stated) |  | 26.7 µM |  | 53.7 µM |  | 28.2 µM |  | 27.6 µM |  | 32 µM |  | 28.1 µM |  | 60.8 µM |  | 31.3 µM |  | 26.3 µM |  | 25.8 µM
CC1C(c2ccc3c(c2)OCO3)c2cc3c(cc2OC1N1CCOCC1)OCO3 (configuration not stated) |  | > 100 µM |  | 73.3 µM |  | > 100 µM |  | 47.3 µM |  | 78.6 µM |  | 27.6 µM |  | 66.9 µM |  | > 100 µM |  | > 100 µM |  | > 100 µM
Nc1ccccc1SC1CC(=O)N(c2ccc(Cl)c(Cl)c2)C1=O (configuration not stated) | 19.4 µM | 74.9 µM | 40.6 µM | > 100 µM | 17.4 µM | > 100 µM | 24.2 µM | > 100 µM | 21 µM | 66.7 µM | 26.1 µM | > 100 µM | 7.7 µM | > 100 µM | > 100 µM | > 100 µM | 8.78 µM | > 100 µM | 12.6 µM | > 100 µM
O=C(CSC(c1ccccc1)c1ccccc1)N/N=C/c1ccco1 | 1.82 µM | 3.62 µM | 2.48 µM | 22 µM | 2.44 µM | > 5.19 µM | 1.46 µM | 2.98 µM | 1.84 µM | 3.84 µM | 2.01 µM | 11.5 µM | 1.64 µM | 4.48 µM | 1.97 µM | 5.24 µM | 2.03 µM | 9 µM | 28.3 µM | > 100 µM
COc1ccc2c3c(Nc4ccc(/C(C)=N/O)cc4)[nH]c4ccccc4c-3c(N=O)c2c1 | 0.568 µM | 2.54 µM | 1.09 µM | 2.92 µM | 3.74 µM | 20.4 µM | 1.47 µM | 2.89 µM | 11.6 µM | 30.9 µM | 2.77 µM | 11.9 µM | 0.951 µM | 2.84 µM | 3.02 µM | 12.2 µM | 1.52 µM | 3.2 µM | 24.1 µM | 53.2 µM
O=C(N/N=C/c1ccc([N+](=O)[O-])o1)c1ccc(O)cc1 | 5.46 µM | > 100 µM | 0.804 µM | 70.5 µM | 8.46 µM | 42.9 µM | 3.63 µM | 12 µM | 6.2 µM | > 100 µM | 1.65 µM | 3.19 µM | 5.69 µM | > 100 µM | 9.32 µM | > 100 µM | 27 µM | > 100 µM | 6.96 µM | 32.7 µM
O=c1oc2ccc(Br)cc2c(=O)n1-c1ccc(F)cc1F | 2.44 µM | 7.99 µM | 3.91 µM | > 100 µM | 2.03 µM | 9.32 µM | 2.48 µM | 8.37 µM | 2.45 µM | 8.3 µM | 2.85 µM | 10.4 µM | 3.12 µM | > 100 µM | 3.79 µM | > 100 µM | 2.85 µM | 12.7 µM | 1.77 µM | 6.94 µM
CC[C@@]1(O)C(=O)OCc2c1cc1n(c2=O)Cc2c-1nc1cc(F)c(C)c3c1c2[C@@H](N)CC3 | < 0.01 µM | 0.026 µM | < 0.01 µM | > 100 µM | 0.0377 µM | > 100 µM | < 0.01 µM | 12.3 µM | < 0.01 µM | 0.159 µM | 0.015 µM | 1.48 µM | < 0.01 µM | > 100 µM | 0.0201 µM |  | 0.02 µM | > 100 µM | < 0.01 µM | > 100 µM
CC1C(=O)OC2CC[N+]3([O-])CC=C(COC(=O)C(C)(O)C1(C)O)C23 (configuration not stated) |  | > 100 µM |  | > 100 µM |  | > 100 µM |  | > 100 µM |  | > 100 µM |  | > 100 µM |  | > 100 µM |  | > 100 µM |  | > 100 µM |  | > 100 µM
O/C(=C\c1nc2ccccc2nc1NC12CC3CC(CC(C3)C1)C2)c1ccc(Br)cc1 |  | > 10 µM |  | > 10 µM |  | > 10 µM |  | > 10 µM |  | > 10 µM |  | > 10 µM |  | > 10 µM |  | > 10 µM |  | > 10 µM |  | > 10 µM
O=C(Nc1ccc(Cl)c(Cl)c1)Nc1ccccc1O | 3.9 µM | 51.5 µM | 3.35 µM | 68.7 µM | 18.2 µM | 61.5 µM | 7.22 µM | 33.5 µM | 10.6 µM | 24.1 µM | 3.96 µM | 15.3 µM | 3.15 µM | 49.1 µM | 15.7 µM | 53.2 µM | 3.09 µM | 27.9 µM | 4.11 µM | 43.6 µM
C[C@H]1CCC/C=C/[C@@H]2C[C@H](O)C[C@H]2[C@H](O)[C@@H](SCC(O)CO)CC(=O)O1 (some centres not stated) | 25.7 µM | 92.8 µM | 34.1 µM | > 100 µM | 27.7 µM | > 100 µM | 35.5 µM | > 100 µM | 33.2 µM | > 100 µM | 35.5 µM | > 100 µM | 27.1 µM | 84.3 µM | 41.1 µM | > 100 µM | 32.8 µM | > 100 µM | 45.2 µM | > 100 µM
CCCCCCCCCCCCOC1C(C(CC(=O)NCCN2CCCC2)NS(=O)(=O)c2cc(Cl)cc(Cl)c2)OC2OC(C)(C)OC21 (configuration not stated) | 1.9 µM | 3.37 µM | 0.00586 µM | 0.0349 µM | 1.87 µM | 3.49 µM | 1.85 µM | 4.78 µM | 1.74 µM | 3.39 µM | 1.41 µM | 3.03 µM | 2.03 µM | 4.33 µM | 2.17 µM | 4.34 µM | 1.64 µM | 3.02 µM |  | 4.46 µM and 2.04 µM
Cc1cc2c(nn1)-c1ccccc1C2=O |  | > 10 µM |  | > 10 µM |  | > 10 µM |  | > 10 µM |  | > 10 µM |  | > 10 µM |  | > 10 µM |  | > 10 µM |  | > 10 µM |  | > 10 µM
CCN(CC)CCNc1ccc2ncn3c4cc(OC)c(OC)c(=O)c4c(O)c1c23 |  | 20.5 µM |  | 53.1 µM |  | 33.2 µM |  | 5.82 µM |  | 28.2 µM |  | 26.9 µM |  | 11.5 µM |  | 45.4 µM |  | 21 µM |  | 42.4 µM

From PubChem BioAssay (NCI)
